Assay [1] addresses T1, μ-opioid receptor (Homo sapiens (Human), UniProt P35372). In words: μ-opioid receptor radioligand dose-displacement binding assay (HEK-293 cells). On the procedure: Radioligand dose-displacement binding assays for μ-opioid receptors used 0.3 nM [^3H]-diprenorphine (Perkin Elmer, Shelton, Conn.), with […] membrane protein/well in a final volume of 500 μl binding buffer (10 mM MgCl2, 1 mM EDTA, 5% DMSO, 50 mM HEPES, pH 7.4). Reactions were carried out in the absence or presence of increasing concentrations of unlabeled naloxone. All reactions were conducted in 96-deep well polypropylene plates for 2 hours at room temperature. Binding reactions were terminated by rapid filtration onto 96-well Unifilter GF/C filter plates (Perkin Elmer, Shelton, Conn.), presoaked in 0.5% polyethylenimine using a 96-well tissue harvester (Perkin Elmer, Shelton, Conn.) followed by performing three filtration washes with 500 μl of ice-cold binding buffer. Filter plates were subsequently dried at 50° C. for 2-3 hours. BetaScint scintillation cocktail (Perkin Elmer, Shelton, Conn.) was added (50 μl/well), and plates were counted using a Packard Top-Count for 1 min/well. The data were analyzed using the one-site competition curve fitting functions in GraphPad PRISM™ v. 3.0 or higher (San Diego, Calif.), or an in-house function for one-site competition curve-fitting.
(§1) In TABLE 3, binding affinity of certain Compounds of the Invention to the μ- and κ-opioid receptors was determined as described above using HEK-293 cells.

Assay [2] addresses κ-opioid receptor (Homo sapiens (Human), UniProt P41145). Description: κ-opioid receptor functional assay (U-2 OS cells). The assay is classed as biochemical. Conditions: for Emax: relative to U69,593. On the procedure: Functional [^35S]GTPγS binding assays were conducted as follows. κ opioid receptor membrane solution was prepared by sequentially adding final concentrations of 0.026 μg/μl κ membrane protein (in-house), 10 μg/mL saponin, 3 μM GDP and 0.20 nM [^35S]GTPγS to binding buffer (100 mM NaCl, 10 mM MgCl2, 20 mM HEPES, pH 7.4) on ice. The prepared membrane solution (190 μl/well) was transferred to 96-shallow well polypropylene plates containing 10 μl of 20× concentrated stock solutions of agonist prepared in DMSO. Plates were incubated for 30 min at a temperature of about 25° C. with shaking. Reactions were terminated by rapid filtration onto 96-well Unifilter GF/B filter plates (Perkin Elmer, Shelton, Conn.) using a 96-well tissue harvester (Packard) and followed by three filtration washes with 200 μl ice-cold binding buffer (10 mM NaH2PO4, 10 mM Na2HPO4, pH 7.4). Filter plates were subsequently dried at 50° C. for 2-3 hours. Fifty μl/well scintillation cocktail (Perkin Elmer, Shelton, Conn.) was added and plates were counted in a Packard Top-Count for 1 min/well.
κ GTP EC50 is the concentration of a compound providing 50% of the maximal response for the compound at a κ receptor.
κ GTP Emax (%) is the maximal effect elicited by a compound relative to the effect elicited by U69,593.
The following TABLE 5 provides results on the activity response of certain Compounds of the Invention at the μ- and κ-opioid receptors determined as described above using U-2 OS cells.

Assay [3] concerns the target recombinant human kappa opioid receptor (κ) (Homo sapiens (Human), UniProt P41145). In words: κ-opioid receptor radioligand dose-displacement binding assay (HEK-293 cells). The procedure:
Membranes from HEK-293 cells, CHO cells or U-2 OS cells expressing the recombinant human kappa opioid receptor (κ) were prepared by lysing cells in ice cold hypotonic buffer (2.5 mM MgCl2, 50 mM HEPES, pH 7.4) (10 mL/10 cm dish) followed by homogenization with a tissue grinder/Teflon pestle. Membranes from a cell line naturally expressing kappa opioid receptor can also be used. Membranes were collected by centrifugation at 30,000×g for 15 min at 4° C. and pellets were resuspended in hypotonic buffer to a final concentration of 1-3 mg/mL. Protein concentrations were determined using the BioRad protein assay reagent with bovine serum albumen as standard. Aliquots of κ receptor membranes were stored at −80° C.
Radioligand dose displacement assays used 0.4 nM [^3H]-U69,593 (GE Healthcare, Piscataway, N.J.; 40 Ci/mmole) with 15 μg membrane protein (recombinant κ opioid receptor expressed in HEK 293 cells; in-house prep) in a final volume of 200 μl binding buffer (5% DMSO, 50 mM Trizma base, pH 7.4). Non-specific binding was determined in the presence of 10 μM unlabeled naloxone or U69,593. All reactions were performed in 96-well polypropylene plates for 1 hour at a temperature of about 25° C. Binding reactions were terminated by rapid filtration onto 96-well Unifilter GF/C filter plates (Perkin Elmer, Shelton, Conn.) presoaked in 0.5% polyethylenimine (Sigma). Harvesting was performed using a 96-well tissue harvester (Perkin Elmer, Shelton, Conn.) followed by five filtration washes with 200 μl ice-cold binding buffer. Filter plates were subsequently dried at 50° C. for 1-2 hours. Fifty μl/well scintillation cocktail (Perkin Elmer, Shelton, Conn.) was added and plates were counted in a Packard Top-Count for 1 min/well.
as §1

Assay [4] concerns the target T1, μ-opioid receptor. Description: μ-opioid receptor [35S]GTPγS functional assay (HEK-293 cells). The assay is classed as biochemical. Particulars: for Emax: relative to DAMGO. On the procedure: (§2) [^35S]GTPγS functional assays were conducted using freshly thawed μ-receptor membranes prepared in-house from a cell line expressing recombinant μ opioid receptor in a HEK-293, CHO or U-2 OS cell background, or purchased from a commercial source (Perkin Elmer, Shelton, Conn.; or DiscovRx, Fremont, Calif.). Assay reactions were prepared by sequentially adding the following reagents to binding buffer (100 mM NaCl, 10 mM MgCl2, 20 mM HEPES, pH 7.4) on ice (final concentrations indicated): membrane protein (0.026 mg/mL), saponin ([…]), GDP ([…]) and [^35S]GTPγS (0.20 nM; Perkin Elmer, Shelton, Conn.). The prepared membrane solution (190 μl/well) was transferred to 96-shallow well polypropylene plates containing 10 μl of 20× concentrated stock solutions of the agonist [D-Ala^2, N-methyl-Phe^4 Gly-ol^5]-enkephalin (DAMGO) prepared in dimethyl sulfoxide (DMSO). Plates were incubated for 30 min at about 25° C. with shaking. Reactions were terminated by rapid filtration onto 96-well Unifilter GF/B filter plates (Perkin Elmer, Shelton, Conn.) using a 96-well tissue harvester (Perkin Elmer, Shelton, Conn.) followed by three filtration washes with 200 μl of ice-cold wash buffer (10 mM NaH2PO4, 10 mM Na2HPO4, pH 7.4). Filter plates were subsequently dried at 50° C. for 2-3 hours. BetaScint scintillation cocktail (Perkin Elmer, Shelton, Conn.) was added (50 μl/well) and plates were counted using a Packard Top-Count for 1 min/well. Data were analyzed using the sigmoidal dose-response curve fitting functions in GraphPad PRISM v. 3.0, or an in-house function for non-linear, sigmoidal dose-response curve-fitting. [^35S]GTPγS functional assays can also be conducted using freshly thawed μ-receptor membranes prepared from a cell line expressing recombinant μ opioid receptor in a CHO-K1 cell background.
(§3) μ GTP EC50 is the concentration of a compound providing 50% of the maximal response for the compound at a μ-opioid receptor.
(§4) μ GTP Emax (%) is the maximal effect elicited by a compound relative to the effect elicited by DAMGO, a standard μ agonist.
In TABLE 4, activity response of certain Compounds of the Invention to the μ- and κ-opioid receptors was determined as described above for functional assays using HEK-293 cells.
A general note: GTPγS resists hydrolysis and so accumulates on activated G proteins.

For assay [5], the target named is T1, μ-opioid receptor. In words: μ-opioid receptor functional assay (U-2 OS cells). Type of assay: biochemical. Particulars: for Emax: relative to DAMGO. The procedure:
as §2, §3, §4

SMILES strings stand for the structures. Like-named read-outs stand apart in the source and are kept apart here. Bounds are passed on as bounds.

The Ki is a dissociation constant, usually derived from enzyme kinetics or from competition with a known ligand. A word on the EC50: it is the concentration at which the effect is half-maximal. The Emax is the maximal effect, on the per cent scale that the assay sets. On to `COc1ccc2c(c1)[C@]13CCN(CC4CC4)[C@H](C2)[C@]12CC[C@@](N(Cc1ccccc1)Cc1ccccc1)(CO2)C3` [Compound 7, (4bR,6S,8aS,9R)—N,N-dibenzyl-11-(cyclopropylmethyl)-3-methoxy-5,6,7,8,9,10-hexahydro-9,4b-(epiminoethano)-8a,6-(epoxymethano)phenanthren-6-amine], for which the Ki was found to be 64.3 ± 21.6 nM in assay [1] and 5.35 ± 0.91 nM in assay [3]. For the same compound, the EC50 in assay [2] (U-2 OS cells, read-out: Opioid Receptor κ EC50) was 2.99 ± 0.33 nM; in assay [4] (HEK-293 cells, bound given in μM, read-out: Opioid Receptor μ EC50) it was over 20 µM; in assay [5] (U-2 OS cells, read-out: Opioid Receptor μ EC50), 26.4 ± 3.96 nM. For the same compound, the figures for the Emax in assay [2] (U-2 OS cells), in assay [4] (HEK-293 cells) and in assay [5] (U-2 OS cells) were 112 ± 3.93%, 5.67 ± 1.86% and 84.3 ± 2.85%, respectively.

Turning to `COc1ccc2c(c1)[C@]13CCN(CC4CC4)[C@H](C2)[C@]12CC[C@@](N)(CO2)C3` [Compound 8, (4bR,6S,8aS,9R)-11-(cyclopropylmethyl)-3-methoxy-5,6,7,8,9,10-hexahydro-9,4b-(epiminoethano)-8a,6-(epoxymethano)phenanthren-6-amine], the Ki in assay [1] worked out at 773 ± 161 nM; in assay [3] it was 4.72 ± 1.07 nM. Moreover, the EC50 in assay [2] was found to be 34.5 ± 3.61 nM; in assay [4] it was 1.11 ± 0.242 µM; in assay [5] it was 88.8 ± 20.6 nM. Further, the figures for the Emax in assay [2] (U-2 OS cells), in assay [4] (HEK-293 cells) and in assay [5] (U-2 OS cells) were 112 ± 1.33%, 27.8 ± 2.17% and 106 ± 2.96%, respectively.

With `COc1ccc2c(c1)[C@]13CCN(CC4CC4)[C@H](C2)[C@]12CC[C@@](NCc1ccccc1)(CO2)C3` [Compound 10, (4bR,6S,8aS,9R)-N-benzyl-11-(cyclopropylmethyl)-3-methoxy-5,6,7,8,9,10-hexahydro-9,4b-(epiminoethano)-8a,6-(epoxymethano)phenanthren-6-amine], the results for the inhibitory constant (Ki) in assay [1] and in assay [3] were 25.9 ± 5.36 nM and 0.026 nM, respectively. For the same compound, the EC50 in assay [2] stood at 0.23 ± 0.01 nM; in assay [4], 0.0533 ± 0.00393 µM; in assay [5] it was 2.08 ± 0.12 nM. In addition, the maximal effect (Emax) was determined as 107 ± 5.36% in assay [2] (U-2 OS cells), 31.7 ± 1.67% in assay [4] (HEK-293 cells) and 110 ± 2.52% in assay [5] (U-2 OS cells).

In the case of `COc1ccc2c(c1)[C@]13CCN(CC4CC4)[C@H](C2)[C@]12CC[C@@](NCC1CCCCC1)(CO2)C3` [Compound 11, (4bR,6S,8aS,9R)—N-(cyclohexylmethyl)-11-(cyclopropylmethyl)-3-methoxy-5,6,7,8,9,10-hexahydro-9,4b-(epiminoethano)-8a,6-(epoxymethano)phenanthren-6-amine], the Ki in assay [1] was found to be 0.93 ± 0.11 nM; in assay [3] it was 0.052 ± 0.015 nM. Besides, the EC50 in assay [2] stood at 0.042 nM; in assay [4], 0.00178 ± 5e-05 µM; in assay [5], 0.033 nM. Moreover, the results for the Emax in assay [2] (U-2 OS cells), in assay [4] (HEK-293 cells) and in assay [5] (U-2 OS cells) were 101.3 ± 0.88%, 75.7 ± 4.1% and 101 ± 2.08%, respectively.

Consider `COc1ccc2c(c1)[C@]13CCN(CC4CC4)[C@H](C2)[C@]12CC[C@@](NC(=O)c1ccccc1)(CO2)C3` [Compound 18, N-((4bR,6S,8aS,9R)-11-(cyclopropylmethyl)-3-methoxy-5,6,7,8,9,10-hexahydro-9,4b-(epiminoethano)-8a,6-(epoxymethano)phenanthren-6-yl)benzamide], for which the values for the Ki in assay [1] and in assay [3] were 35.9 ± 8.18 nM and 0.032 ± 0.01 nM, respectively. The EC50 in assay [2] was determined as 0.42 ± 0.016 nM; in assay [4], 0.175 ± 0.0217 µM; in assay [5] it was 7.53 ± 0.69 nM. Also, the Emax was 111 ± 2.6% in assay [2] (U-2 OS cells), 41 ± 1.58% in assay [4] (HEK-293 cells) and 107 ± 8.35% in assay [5] (U-2 OS cells).

With `COc1ccc2c(c1)[C@]13CCN(CC4CC4)[C@H](C2)[C@]12CC[C@@](NC(=O)CCc1ccccc1)(CO2)C3` [Compound 19, N-((4bR,6S,8aS,9R)-11-(cyclopropylmethyl)-3-methoxy-5,6,7,8,9,10-hexahydro-9,4b-(epiminoethano)-8a,6-(epoxymethano)phenanthren-6-yl)-3-phenylpropanamide], the Ki in assay [1] is 9.26 ± 3.2 nM; in assay [3] it was 1.58 ± 0.44 nM. Also, the EC50 in assay [2] is 2.84 ± 0.33 nM; in assay [4], 0.0412 ± 0.0128 µM; in assay [5], 1.37 ± 0.11 nM. Also, the values for the Emax in assay [2] (U-2 OS cells), in assay [4] (HEK-293 cells) and in assay [5] (U-2 OS cells) were 109.7 ± 0.33%, 29.8 ± 1.96% and 102 ± 5.7%, respectively.

Consider `COc1ccc2c(c1)[C@]13CCN(CC4CC4)[C@H](C2)[C@]12CC[C@@](NC(=O)c1ccc(Cl)cc1)(CO2)C3` [Compound 20, N-((4bR,6S,8aS,9R)-11-(cyclopropylmethyl)-3-methoxy-5,6,7,8,9,10-hexahydro-9,4b-(epiminoethano)-8a,6-(epoxymethano)phenanthren-6-yl)-4-chlorobenzamide], for which the values for the Ki in assay [1] and in assay [3] were 24.7 ± 3.5 nM and 0.6 ± 0.098 nM, respectively. Besides, the half-maximal effective concentration (EC50) in assay [2] came out at 3.24 ± 0.082 nM; in assay [4], 0.0524 ± 0.0117 µM; in assay [5], 3.23 ± 0.13 nM. Moreover, the Emax is 115 ± 2.85% in assay [2] (U-2 OS cells), 20.2 ± 0.48% in assay [4] (HEK-293 cells) and 102 ± 2.85% in assay [5] (U-2 OS cells).
